# In US7553871B2, “Fatty acid antimicrobial” (GEA WestfaliaSurge, Inc., priority 1996, dated 2009):
# Key:
# Format in all cases: cell-based
# Staphylococcus aureus [1] = test: In vitro suspension kill test, 1 minute contact at 37° C., survivors plated (Examples 1, 4, 5); conditions: 1 minute at 37° C.
# Protocol: (§1) A set of in vitro tests was run on Staphylococcus aureus, Escherichia coli, Streptococcus agalactiae, Streptococcus uberis, Staphylococcus epidermidis, and Pseudomonas aeruginosa. A culture of the microorganism was first prepared according to the following procedure. Six to ten milliliters of trypticase soy broth was inoculated with the organism under consideration from a frozen or refrigerated stock. After incubation for five to seven hours at 37° C., the culture was transferred to a flask containing trypticase soy broth. The culture in the flask was then incubated on a gyratory shaker at approximately 1500 rpm overnight at 37° C. The next day, the culture in the flask is washed once in phosphate buffered saline solution (PBS) and stored at approximately 4° C. until needed. […]
# (§2) The surviving bacteria suspended in quencher solution were then diluted with PBS and plated on appropriate media, for example, MacConkey for Escherichia coli, Staph 110 for Staphylococcus, and trypticase soy agar with 6% Sheep's blood for Streptococcus. The plates were incubated 24 to 48 hours at 37° C. and counted. The surviving organisms were expressed as colony forming units (CFU)/ml, and compared to the negative control as percent survival. […]
# Escherichia coli [2] = test: Excised dairy cow teat dip test (Example 2); conditions: Escherichia coli on excised cow teats; dipped, drained ten minutes; log mean CFU/ml vs negative control
# Protocol: (§3) Another set of in vitro tests were run on Staphylococcus aureus, Escherichia coli, and Streptococcus uberis. A culture of the microorganism was first prepared according to the following procedure. Six to ten milliliters of trypticase soy broth was inoculated with the organism under consideration from a frozen or refrigerated stock. After incubation for five to seven hours at 37° C., the culture was transferred to a flask containing 200 milliliters of trypticase soy broth. The culture in the flask was then incubated on a gyratory shaker at approximately 1500 rpm overnight at 37° C. The next day, the culture in the flask is washed once in PBS or 0.1% protease peptone, and stored at approximately 4° C. until required.
# (§4) The tests were run using dairy cow teats which had been obtained from a slaughter house. The teats were cut off at their connection to the udder, cleaned, and all hair was removed by using an open flame. The teats selected for the testing were screened for lesions, cuts, scars or other abnormalities. The teats were stored until needed in plastic bags in ice at a temperature below freezing. […]
# (§5) Countable dilutions were plated on appropriate media, and incubated from 24 to 48 hours at 37° C. The colonies were counted macroscopically with the aid of fluorescent light. Non-typical colonies were not counted. […]
# Staphylococcus aureus [3] = test: Excised dairy cow teat dip test (Example 2); conditions: Staphylococcus aureus on excised cow teats; dipped, drained ten minutes; log mean CFU/ml vs negative control
# Protocol: as §3, §4, §5
# Pseudomonas aeruginosa = test: In vitro suspension kill test, 1 minute contact at 37° C., survivors plated (Example 1); conditions: diluted with organic load (1:1 with whole milk)
# Protocol: (§6) A set of in vitro tests was run on Staphylococcus aureus, Escherichia coli, Streptococcus agalactiae, Streptococcus uberis, Staphylococcus epidermidis, and Pseudomonas aeruginosa. A culture of the microorganism was first prepared according to the following procedure. Six to ten milliliters of trypticase soy broth was inoculated with the organism under consideration from a frozen or refrigerated stock. After incubation for five to seven hours at 37° C., the culture was transferred to a flask containing trypticase soy broth. The culture in the flask was then incubated on a gyratory shaker at approximately 1500 rpm overnight at 37° C. The next day, the culture in the flask is washed once in phosphate buffered saline solution (PBS) and stored at approximately 4° C. until needed.
# (§7) To test a specific antimicrobial's efficacy, ten milliliters of the culture was transferred to a 15 milliliter centrifuge tube and centrifuged at approximately 600 to 700 g for approximately five to ten minutes. After decanting the supernatant, ten milliliters of the antimicrobial (or PBS in the negative, or untreated, control) was added, and the centrifuge tube vortexed to suspend the bacteria. In those tests involving “organic loads”, a 1:1 dilution of the antimicrobial with whole milk was made before addition to the cultured microorganism to simulate conditions the product may have to experience in a real life environment, such as on a cow's teat.
# (§8) The tube was then placed in a 37° C. water bath for 1 minute. The tube was centrifuged again at approximately 600 to 700 g for approximately five to ten minutes, and the supernatant decanted. The remaining precipitate was then suspended in a quencher solution containing letheen broth, 1% sodium thiosulfate and 0.2 mM CaCl2. The tube was centrifuged at approximately 600 to 700 g for approximately five to ten minutes, decanted and washed a second time in the quencher solution.
# (§9) The surviving bacteria suspended in quencher solution were then diluted with PBS and plated on appropriate media, for example, MacConkey for Escherichia coli, Staph 110 for Staphylococcus, and trypticase soy agar with 6% Sheep's blood for Streptococcus. The plates were incubated 24 to 48 hours at 37° C. and counted. The surviving organisms were expressed as colony forming units (CFU)/ml, and compared to the negative control as percent survival.
# [4] = system: Staphylococcus epidermidis; test: as above; conditions: diluted with organic load (1:1 with whole milk)
# Protocol: as §6, §7, §8, §9
# Streptococcus agalactiae = test: as above; conditions: diluted with organic load (1:1 with whole milk)
# Protocol: as §6, §7, §8, §9
# Streptococcus uberis = test: as above; conditions: diluted with organic load (1:1 with whole milk)
# Protocol: as §6, §7, §8, §9
# Escherichia coli [5] = test: In vitro suspension kill test, 1 minute contact at 37° C., survivors plated (Examples 1, 5); conditions: 1 minute at 37° C.
# Protocol: as §1, §2
# [6] = diluted with organic load (1:1 with whole milk)
compound,measurement,setting,value
[O][Cl+][O-] [chlorine dioxide],Percent Survival,Staphylococcus aureus [1]; [6],16.96%
same,Percent Survival,"Staphylococcus aureus [1]; undiluted antimicrobial, CFU/ml compared to negative control",0%
same,Percent Log Reduction,Escherichia coli [2],22%
same,Percent Log Reduction,Staphylococcus aureus [3],33.90%
same,Percent Survival,Pseudomonas aeruginosa,0%
same,Percent Survival,[4],5%
same,Percent Survival,Streptococcus agalactiae,0%
same,Percent Survival,Streptococcus uberis,5.19%
same,Percent Survival,Escherichia coli [5]; [6],0%
same,Percent Survival,Escherichia coli [5]; undiluted antimicrobial,0%
